Assay results published in PMC3827198, “Characterisation of AmphiAmR11, an Amphioxus (Branchiostoma floridae) D2-Dopamine-Like G Protein-Coupled Receptor” (PLoS ONE, 2013).
Counter-ions that a name gives are not always drawn. Like-named read-outs stand apart in the source and are kept apart here.

Columns and labels:
[1] = biological target: T1, AmphiAmR11 (Branchiostoma floridae, UniProt A0PF35); assay: Block of tyramine-induced inhibition of forskolin-stimulated cAMP levels in AmphiAmR11-expressing CHO-K1 cells; format: cell-based; conditions: 30 nM tyramine
T1 sequence (A0PF35 entry or part of it): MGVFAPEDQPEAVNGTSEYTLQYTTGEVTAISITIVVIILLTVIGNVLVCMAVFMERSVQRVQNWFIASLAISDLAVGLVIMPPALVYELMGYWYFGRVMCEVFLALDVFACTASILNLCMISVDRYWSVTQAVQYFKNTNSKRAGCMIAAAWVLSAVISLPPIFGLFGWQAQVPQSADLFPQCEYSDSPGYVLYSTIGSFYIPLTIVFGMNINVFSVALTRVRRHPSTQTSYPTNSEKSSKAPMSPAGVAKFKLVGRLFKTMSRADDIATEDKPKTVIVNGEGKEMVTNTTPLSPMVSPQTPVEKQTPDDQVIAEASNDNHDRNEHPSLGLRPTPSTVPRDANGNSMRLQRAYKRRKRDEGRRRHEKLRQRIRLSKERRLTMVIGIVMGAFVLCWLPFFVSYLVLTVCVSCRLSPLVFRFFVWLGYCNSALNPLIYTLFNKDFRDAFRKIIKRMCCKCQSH

[2] = biological target: T1, AmphiAmR11; assay: Inhibition of forskolin-stimulated cAMP levels in AmphiAmR11-expressing CHO-K1 cells (agonist mode); format: cell-based; conditions: for Effect on forskolin-stimulated cAMP levels at 1 µM: 1 µM agonist
Description: CHO-K1 cells were maintained in Ham’s F-12 nutrient media (Invitrogen Life Sciences) supplemented with 10% charcoal-stripped foetal bovine serum (CS-FBS) (Hyclone, Cramlington, UK), 50 U/μg penicillin/streptomycin and 4 mM L-glutamine (Invitrogen Life Sciences) in 5% CO2 at 37°C. Stably transfected cell lines were generated by the transfection of CHO-K1 cells using Lipofectamine (Invitrogen Life Sciences) as described previously [8, 9].
cAMP levels in stably transfected CHO-K1 cells were determined as described previously [8, 9, 21], except 100 µM isobutylmethylxanthine (IBMX) was used. cAMP levels are represented as a percentage of basal samples unless otherwise stated. Student’s T-test (two-tailed and unpaired) was used to test for significance. Unless otherwise stated, all data are shown as mean ± SEM. Each data point plotted was the mean of data obtained from at least three experiments. Within each experiment three separate replicate wells were analysed for each condition and the cAMP assays on each of the wells was carried out in duplicate.
Forskolin was used both to increase basal cAMP levels to make it easier to detect increases and decreases in cAMP levels in the same experiments and also to potentiate responses to agonists to more accurately determine their threshold effects [see 22]. A non-saturating 10 µM concentration of forskolin was used.
Figure 1 Effect of biogenic amines and synthetic agonists on forskolin-stimulated cAMP levels in AmphiAmR11-expressing CHO-K1 cells. Cells were pre-incubated with 100 µM IBMX for 20 min, followed by incubation with 10 µM forskolin and 100 µM IBMX in the presence of increasing concentrations of various biogenic amines (A) or synthetic agonists (B) for a further 20 min. Data are expressed as the mean ± SEM. n ≥ 3.

[3] = biological target: T1, AmphiAmR11; assay: Block of dopamine-induced ERK1/2 activation in AmphiAmR11-expressing CHO-K1 cells by antagonists; format: cell-based; conditions: 1 µM antagonist, 10 nM dopamine, 5 min
[4] = biological target: T1, AmphiAmR11; assay: ERK1/2 phosphorylation in AmphiAmR11-expressing CHO-K1 cells (Western blotting); format: cell-based; conditions: for Effect of antagonist on ERK1/2 phosphorylation in the absence of dopamine: 1 μM antagonist; for Duration of ERK1/2 phosphorylation response after the peak: 1 µM tyramine (level by 30 minutes) or 30 nM dopamine; for Time of peak ERK1/2 phosphorylation: 1 µM tyramine or 30 nM dopamine; for Effect on ERK1/2 phosphorylation at 10 nM: 10 nM biogenic amine
[5] = test system: dopamine-induced ERK1/2 activation; assay: Effect of pertussis toxin and signalling inhibitors on agonist-induced ERK1/2 activation in AmphiAmR11-expressing CHO-K1 cells; format: cell-based, Chinese hamster; conditions: for Effect of inhibitor on dopamine-induced ERK1/2 phosphorylation: 10 µM inhibitor, 5 minutes
Description: Phospho-extracellular signal-related kinase (Phospho-ERK) levels were determined essentially as described previously. Minor modifications have been described. ERK1/2 phosphorylation levels were quantified by densitometry. The developed films were scanned in and analysed using the software program, Aida. The data generated by Aida was then processed using Microsoft Excel. Values for the kinase expression and activity levels were defined as 100% in the control samples. Student’s T-test (two-tailed and unpaired) was used to test for significance.
Figure 5 Effect of pertussis toxin and signalling inhibitors on dopamine-induced ERK1/2 activation in AmphiAmR11-expressing CHO-K1 cells. For the pertussis toxin experiment, AmphiAmR11-expressing CHO-K1 cells were pre-incubated with pertussis toxin (200 ng/ml) for 16 hours prior to serum-starvation for 2 hours in the absence of the toxin. Cells were then stimulated for 5 mins with 10 nM dopamine (open bar) or F-12 Hams control (black bar). For all other inhibitors, AmphiAmR11-expressing CHO-K1 cells were serum starved for 2 hours including incubation with 10 µM inhibitor or F-12 Hams control for the final 20 (AG1296 and AG1478) or 30 (PP2, LY294002, Ro31-8220, U0126, U73122 and U73343) minutes. Cells were then stimulated for 5 minutes with 10 nM dopamine […] in the presence of the inhibitor. Basal measurement in the absence of dopamine and inhibitor (first black bar) and the dopamine-only response in the absence of inhibitor (first open bar) are shown. (A) Representative blots from three or four independent experiments. […] Data are expressed as the mean + SEM. n = 3 - 4. DA, dopamine; PTX, pertussis toxin; Ro, Ro 31-8220; LY, LY294002.
Figure S3. Time courses for the effect of dopamine and tyramine on ERK1/2 phosphorylation in AmphiAmR11-expressing CHO-K1 cells. (A and B) AmphiAmR11-expressing CHO-K1 cells were serum-starved for 2 hours, prior to stimulation with tyramine or dopamine at the specified concentration for the specified length of time. Equal quantities of cell lysates were separated by SDS-PAGE and analysed for pERK or tERK by Western blotting. (C and D): AmphiAmR11-expressing CHO-K1 cells were incubated with pertussis toxin (200 ng/mL) for 16 hours followed by stimulation as described for Figures A and B. (A to D) Representative blot for each condition from three to four independent experiments. (E) Summary of the quantified blots. Data are expressed as the mean ± SEM. n = 3-4. PTX, pertussis toxin; Min, minutes.

[6] = biological target: T1, AmphiAmR11; assay: cell-based; format: cell-based; conditions: for Concentrations coupling AmphiAmR11 to an increase in cAMP levels: after pertussis toxin; for Effect on forskolin-stimulated cAMP levels following pertussis toxin treatment: amines at 100 µM; for Concentration dependence of increase in forskolin-stimulated cAMP levels following pertussis toxin: 16 h, up to 100 µM
[7] = biological target: T1, AmphiAmR11; assay: Calcium mobilisation in AmphiAmR11-expressing CHO-K1 cells (Fura-2, percentage of responding cells per field of view); format: cell-based
Description: Stably transfected CHO-K1 cells were assayed for changes in intracellular calcium levels using an Olympus Cell^R imaging system and the fluorescent indicator Fura-2, as described previously, with modifications described by Bayliss et al.. At 1 minute into the experiment, a buffer control was added and at 2 minutes into the experiment, the specified concentration of agonist was added. A single coverslip of cells was used per concentration of agonist and the percentage of cells that responded per field of view was calculated. The results from each coverslip gave an n of 1 and each agonist concentration was repeated at least three times on different days.
Figure 6 Effect of biogenic amines and calcium pathway inhibitors on calcium mobilisation in AmphiAmR11-expressing CHO-K1 cells. AmphiAmR11-expressing cells were exposed to increasing concentrations (A) or 10 nM (B) of biogenic amines for 3 minutes and the number of responding cells per field of view were calculated. Data are expressed as the mean ± SEM. n ≥ 3. FOV, field of view; DA, dopamine; TA, tyramine; NA, noradrenaline; Adr, adrenaline; OA, octopamine.

[8] = 1 μM antagonist, 10 µM forskolin
[9] = 10 µM forskolin, 100 µM IBMX, 20 min, full concentration response curves, read-out: EC50 for decrease in forskolin-stimulated cAMP levels
[10] = pertussis toxin 200 ng/mL, 16 hours
[11] = 10 µM forskolin, 100 µM IBMX, 20 min
[12] = 1 µM synthetic agonist, 5 min, dopamine as reference

## COc1cccc(OC)c1OCCNCC1COc2ccccc2O1 (stereo not shown) [WB4101]
[1]; varying concentrations of antagonist
  Blocking effect on tyramine-induced response at reduced antagonist concentrations: small blocking effect
[2]; [8]
  Decrease of forskolin-stimulated cAMP levels by antagonist in the absence of agonist: could inhibit forskolin-stimulated cAMP levels
[2]; [9]
  EC50: 32 nM
[2]; cAMP assay
  Agonist type at AmphiAmR11 (full or partial): partial agonist
[2]; concentration-response curves, absence of other agonist
  Inhibition of forskolin-stimulated cAMP levels (maximal): approximately 75%
[3]
  Block of dopamine-induced ERK1/2 activation: partial effect
[4]
  Effect of antagonist on ERK1/2 phosphorylation in the absence of dopamine: increase in ERK1/2 phosphorylation

## pertussis toxin
[5]; pertussis toxin 200 ng/mL, 16 hours, 1 µM tyramine, 30 nM dopamine
  Effect of pertussis toxin on tyramine- and dopamine-induced ERK1/2 phosphorylation at multiple time points: abolished
[5]; pertussis toxin 200 ng/ml, 16 hours, 10 nM dopamine
  Effect of pertussis toxin on ERK1/2 response at 5 minutes of dopamine stimulation: abolished
[6]; [10]
  Effect of pertussis toxin treatment on amine-mediated decreases in forskolin-stimulated cAMP levels: inhibit the amine-mediated decreases

## NCCc1ccc(O)c(O)c1 [dopamine, dopamine hydrochloride]
[2]
  EC50: 16.7 nM
[7]
  EC50: 1.68 nM
[7]; ratio of EC50 values
  Fold more potent than tyramine in calcium assay: approximately 450 fold
[4]
  EC50: 1.27 nM
  Duration of ERK1/2 phosphorylation response after the peak: more sustained ERK1/2 phosphorylation response
  Time of peak ERK1/2 phosphorylation: approximately 5 minutes
[4]; ratio of EC50 values
  Fold more potent than tyramine in MAPK assay: 10 fold
[6]
  EC50: 470 nM
  Concentrations coupling AmphiAmR11 to an increase in cAMP levels: less than 1 µM
[6]; [10]
  Effect on forskolin-stimulated cAMP levels following pertussis toxin treatment: increase in forskolin-stimulated cAMP levels

## NCCc1ccc(O)cc1 [tyramine, tyramine hydrochloride]
[2]; [9]
  EC50: 7.47 nM
[7]; 3 minutes exposure, read-out: EC50 for calcium mobilisation (percentage of responding cells per field of view)
  EC50: 767 nM
[4]
  EC50: 18.2 nM
  Duration of ERK1/2 phosphorylation response after the peak: approximately half that of its peak at 5 minutes
  Time of peak ERK1/2 phosphorylation: approximately 5 minutes
[6]
  Concentrations coupling AmphiAmR11 to an increase in cAMP levels: above 1 µM
[6]; [10]
  Effect on forskolin-stimulated cAMP levels following pertussis toxin treatment: increase in forskolin-stimulated cAMP levels
[6]; pertussis toxin 200 ng/mL
  Concentration dependence of increase in forskolin-stimulated cAMP levels following pertussis toxin: concentration-dependent effects

## COc1cc2ncc(-c3ccccc3)nc2cc1OC [AG1296, tyrphostin AG1296]
[5]; 10 nM dopamine
  Effect of inhibitor on dopamine-induced ERK1/2 phosphorylation: neither inhibitor had a significant effect

## CC(N)c1ccccc1 (racemic) [phenylethylamine, (±)-1-phenylethylamine]
[2]; [9]
  EC50: 16.5 nM
[4]; 5 min stimulation, read-out: EC50 for inducing ERK1/2 phosphorylation
  EC50: 57.8 nM
[6]
  Concentrations coupling AmphiAmR11 to an increase in cAMP levels: above 1 µM
[6]; [10]
  Effect on forskolin-stimulated cAMP levels following pertussis toxin treatment: increase in forskolin-stimulated cAMP levels
[6]; pertussis toxin 200 ng/mL
  Concentration dependence of increase in forskolin-stimulated cAMP levels following pertussis toxin: concentration-dependent effects

## NCCc1c[nH]cn1 [histamine, histamine dihydrochloride]
[2]; [11]
  Effect on forskolin-stimulated cAMP levels at 1 µM: no effect
[4]; 5 min
  Effect on ERK1/2 phosphorylation at 10 nM: not able to increase

## Br.C=CCN1CCc2c(cc(O)c(O)c2Cl)C(c2ccccc2)C1 (racemic) [6-Chloro-APB, (±)-6-chloro-7,8-dihydroxy-3-allyl-1-phenyl-2,3,4,5-tetrahydro-^1H-3-benzazepine hydrobromide]
[2]; [9]
  EC50: 2230 nM
[4]; [12]
  Effect on ERK1/2 phosphorylation at 1 µM: less effective than naphazoline, UK14,304 and quinpirole

## COc1cc2ncnc(Nc3cccc(Cl)c3)c2cc1OC [AG1478, tyrphostin AG 1478]
[5]; 10 nM dopamine
  Effect of inhibitor on dopamine-induced ERK1/2 phosphorylation: neither inhibitor had a significant effect

## Clc1cccc(Cl)c1N=C1NCCN1 [clonidine, clonidine hydrochloride]
[2]
  EC50: 623 nM
[4]
  Effect on ERK1/2 phosphorylation at 1 µM: less effective than naphazoline, UK14,304 and quinpirole

## N#CC(=C(N)Sc1ccccc1N)C(C#N)=C(N)Sc1ccccc1N [U0126, 1,4-Diamino-2,3-dicyano-1,4-bis(o-aminophenylmercapto)butadiene]
[5]; 10 nM dopamine
  Effect of inhibitor on dopamine-induced ERK1/2 phosphorylation: abolished

## CCN(CC)CCNC(=O)c1cc(Cl)c(N)cc1OC [metoclopramide, metoclopramide hydrochloride]
[1]; [8]
  Block of tyramine-induced inhibition of forskolin-stimulated cAMP levels: no significant blocking effect
[3]
  Block of dopamine-induced ERK1/2 activation: no significant effect
[4]
  Effect of antagonist on ERK1/2 phosphorylation in the absence of dopamine: did not exhibit any agonistic properties

## CC(C)NCC(O)c1ccc(O)c(O)c1 (racemic) [isoproterenol, (±)-isoproterenol hydrochloride]
[2]; [11]
  Effect on forskolin-stimulated cAMP levels at 1 µM: little or no effect
[4]; [12]
  Effect on ERK1/2 phosphorylation at 1 µM: little or no effect

## CNCC(O)c1ccc(O)cc1 (racemic) [synephrine, (±)-synephrine]
[2]
  EC50: 1650 nM
[4]; 5 min
  Effect on ERK1/2 phosphorylation at 10 nM: not able to increase
[6]; [10]
  Effect on forskolin-stimulated cAMP levels following pertussis toxin treatment: did not induce an increase

## Cn1cc(C2=C(c3cn(CCCSC(=N)N)c4ccccc34)C(=O)NC2=O)c2ccccc21 [Ro 31-8220]
[5]; 10 nM dopamine
  Effect of inhibitor on dopamine-induced ERK1/2 phosphorylation: near basal levels

## Oc1cc2c(cc1O)[C@@H](c1ccccc1)CNCC2 [SKF38393, R(+)-1-phenyl-2,3,4,5-tetrahydro-(^1H)-3-benzazepine-7,8-diol]
[2]; [9]
  EC50: 792 nM
[4]; [12]
  Effect on ERK1/2 phosphorylation at 1 µM: less effective than naphazoline, UK14,304 and quinpirole

## Brc1c(NC2=NCCN2)ccc2nccnc12 [UK14,304, UK14304]
[2]
  EC50: 350 nM
[4]; [12]
  Effect on ERK1/2 phosphorylation at 1 µM: most effective of the synthetic agonists

## CC(C)(C)n1nc(-c2ccc(Cl)cc2)c2c(N)ncnc21 [PP2, 3-(4-chlorophenyl) 1-(1,1-dimethylethyl)-1H-pyrazolo[3,4-d]pyrimidin-4-amine]
[5]; 10 nM dopamine
  Effect of inhibitor on dopamine-induced ERK1/2 phosphorylation: no effect

## CNC[C@H](O)c1cccc(O)c1 [phenylephrine, (R)-(-)-phenylephrine hydrochloride]
[2]; [11]
  Effect on forskolin-stimulated cAMP levels at 1 µM: little or no effect
[4]; [12]
  Effect on ERK1/2 phosphorylation at 1 µM: little or no effect
